Columns and labels:
[1] = test system: normal NK cells expanded with K562-aAPC; experiment: percent inhibition of viability; higher = more inhibition; details: 72 h, IL-2 2.5 ng/mL
Description: (§1)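 Drug sensitivity and resistance testing on K562-aAPC-expanded normal NK cells: 5 concentrations (10-fold steps over a 10,000-fold range), 72 h at 37 °C, viability by CellTiter-Glo normalised to DMSO and benzethonium chloride controls; DSS from the fitted curve.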

DERL-7 (IL-2 2.5 ng/mL) [2] = experiment: as above; details: 72 h
IMC-1 (IL-2 20 ng/mL) [3] = experiment: as above; details: 72 h
KAI3 (IL-2 2.5 ng/mL) [4] = experiment: as above; details: 72 h
KHYG-1 (IL-2 2.5 ng/mL) [5] = experiment: as above; details: 72 h
NK-92 (IL-2 2.5 ng/mL) [6] = experiment: as above; details: 72 h
NK-YS (IL-2 2.5 ng/mL) [7] = experiment: as above; details: 72 h
NKL (IL-2 2.5 ng/mL) [8] = experiment: as above; details: 72 h
SNK-6 (IL-2 2.5 ng/mL) [9] = experiment: as above; details: 72 h
YT (IL-2 2.5 ng/mL) [10] = experiment: as above; details: 72 h
[11] = test system: normal primary NK cells, pool 1 (3 donors) (IL-2 2.5 ng/mL); experiment: as above; details: 72 h
[12] = test system: normal primary NK cells, pool 1 (3 donors), resting (IL-2 0 ng/mL); experiment: as above; details: 72 h
[13] = test system: normal primary NK cells, pool 2 (3 donors) (IL-2 2.5 ng/mL); experiment: as above; details: 72 h
[14] = test system: normal primary NK cells, pool 3 (3 donors) (IL-2 2.5 ng/mL); experiment: as above; details: 72 h
[15] = test system: normal NK cells expanded with K562-aAPC; experiment: drug sensitivity score (DSS) (DSS units); higher = more sensitive; extreme values may be limits of the assay; details: 72 h; IL-2 2.5 ng/mL
Description: as §1

DERL-7 (IL-2 2.5 ng/mL) [16] = experiment: as above; details: 72 h
IMC-1 (IL-2 20 ng/mL) [17] = experiment: as above; details: 72 h
KAI3 (IL-2 2.5 ng/mL) [18] = experiment: as above; details: 72 h
KHYG-1 (IL-2 2.5 ng/mL) [19] = experiment: as above; details: 72 h
NK-92 (IL-2 2.5 ng/mL) [20] = experiment: as above; details: 72 h
NK-YS (IL-2 2.5 ng/mL) [21] = experiment: as above; details: 72 h
NKL (IL-2 2.5 ng/mL) [22] = experiment: as above; details: 72 h
SNK-6 (IL-2 2.5 ng/mL) [23] = experiment: as above; details: 72 h
YT (IL-2 2.5 ng/mL) [24] = experiment: as above; details: 72 h
[25] = test system: normal primary NK cells, pool 1 (3 donors) (IL-2 2.5 ng/mL); experiment: as above; details: 72 h
[26] = test system: normal primary NK cells, pool 1 (3 donors), resting (IL-2 0 ng/mL); experiment: as above; details: 72 h
[27] = test system: normal primary NK cells, pool 2 (3 donors) (IL-2 2.5 ng/mL); experiment: as above; details: 72 h
[28] = test system: normal primary NK cells, pool 3 (3 donors) (IL-2 2.5 ng/mL); experiment: as above; details: 72 h

Cc1ccc(Nc2nccc(N(C)c3ccc4c(C)n(C)nc4c3)n2)cc1S(N)(=O)=O [Pazopanib] (max concentration tested 10000 nM)
percent inhibition of viability [%]
Details | 1 nM | 10 nM | 100 nM | 1000 nM | 10000 nM
DERL-7 (IL-2 2.5 ng/mL) [2] | -0.93 | 9.12 | -0.5 | -6.76 | -10.4
IMC-1 (IL-2 20 ng/mL) [3] | -4.11 | -5.35 | 2.08 | 16.6 | 44.2
KAI3 (IL-2 2.5 ng/mL) [4] | -4.79 | -5.2 | 1.76 | 10.1 | 18.6
KHYG-1 (IL-2 2.5 ng/mL) [5] | -2.36 | -0.84 | 4.74 | 27.1 | 36.6
NK-92 (IL-2 2.5 ng/mL) [6] | 3.54 | 3.74 | 11.9 | 27.6 | 33.7
NK-YS (IL-2 2.5 ng/mL) [7] | -0.74 | 0.29 | 6.42 | 12.1 | 15.1
NKL (IL-2 2.5 ng/mL) [8] | -16.9 | -17.8 | -11.3 | 13.6 | 14.8
SNK-6 (IL-2 2.5 ng/mL) [9] | 7.81 | 14.5 | 36.6 | 53.3 | 48.6
YT (IL-2 2.5 ng/mL) [10] | 0.54 | 3.53 | 8.86 | 14.9 | 16.6
[1] | 3.24 | -2.13 | 1.77 | 5.99 | 11.2
[11] | -5.94 | 2.19 | -7.48 | -8.52 | -1.45
[12] | 8.82 | 5.43 | -6.14 | -6.41 | 4.16
[13] | -17.7 | -14.4 | -13.5 | -2.24 | 2.28
[14] | -10.1 | -9.49 | -4.17 | -3.69 | -2.21

Details | drug sensitivity score
DERL-7 (IL-2 2.5 ng/mL) [16] | 0
IMC-1 (IL-2 20 ng/mL) [17] | 4.34
KAI3 (IL-2 2.5 ng/mL) [18] | 1.17
KHYG-1 (IL-2 2.5 ng/mL) [19] | 5.18
NK-92 (IL-2 2.5 ng/mL) [20] | 5.68
NK-YS (IL-2 2.5 ng/mL) [21] | 1.11
NKL (IL-2 2.5 ng/mL) [22] | 1.08
SNK-6 (IL-2 2.5 ng/mL) [23] | 15
YT (IL-2 2.5 ng/mL) [24] | 1.79
[15] | 0.02
[25] | 0
[26] | 0
[27] | 0
[28] | 0
